{"source": "patent US20070123556A1", "about": "“Treatment with Sigma Receptor Agonists Post-Stroke” (UNIVERSITY OF SOUTH FLORIDA, priority 2005, published 2007)", "key": {"ASIC channels": {"tested_on": "ASIC channels", "assay": "low-pH (pH 6.0) evoked ASIC-mediated increases in [Ca2+]i", "type": "cell-based, rat", "settings": "100 μM, pH 6.0"}, "rats subjected to MCAO [1]": {"tested_on": "rats subjected to MCAO", "assay": "isolectin IB4 labeling, activated microglia/macrophages after MCAO", "type": "in vivo, rat", "settings": "15 mg/kg DTG from 24 h post-MCAO", "method": "(§1) MCAO surgery was performed as previously reported by Vendrame et al (Vendrame et al., 2004) and originally described by Longa et al (Longa et al., 1989). Laser Doppler Radar (LDR) was used to monitor decrease in blood perfusion which indicates successful occlusion (Moor Instruments Ltd, Devon, England). A 2 mm diameter hole was drilled into the right parietal bone (1 mm posterior and 4 mm lateral from bregma), and a guide screw was set. The LDR probe (MP10M200ST; Moor) was inserted into the guide screw, and the tip of the probe was placed against the pial surface of the brain. […] For MCAO, the embolus (4 cm long, 6 lb test monofilament) was advanced up the internal carotid artery into the middle cerebral artery and tied off at the internal/external carotid junction to produce permanent occlusion. The rat was then sutured, given a 1 ml subcutaneous injection of saline, and allowed to wake in a fresh cage.\n(§2) Rats were randomly assigned to 1 of 7 groups: (1) MCAO (n=7); (2) MCAO and 15 mg/kg DTG in a 3% lactic acid vehicle (n=11); (3) MCAO and 30 mg/kg DTG (n=16); (4) MCAO and bi-daily injections of 30 mg/kg DTG (n=12); (5) MCAO and 10 mg/kg N-[2-(3,4-dichlorophenyl)ethyl]-N-methyl-2-(dimethylamino)ethylamine (BD 1047) (n=4); (6) MCAO and 10 mg/kg BD1047+30 mg/kg DTG (n=4); (7) sham/MCAO and 15 mg/kg DTG (n=4). […]"}, "glutamate receptors": {"tested_on": "glutamate receptors", "settings": "100 μM; cited from earlier work"}, "rats subjected to MCAO [2]": {"tested_on": "rats subjected to MCAO", "assay": "GFAP immunostaining, reactive astrocytes after MCAO", "type": "in vivo, rat", "settings": "15 mg/kg DTG from 24 h post-MCAO", "method": "as §1, §2"}, "rats subjected to MCAO [3]": {"tested_on": "rats subjected to MCAO", "assay": "NeuN immunostaining, viable neurons after MCAO", "type": "in vivo, rat", "settings": "15 mg/kg", "method": "as §1, with “cage. […]” for “cage.”\n[…]. […] The area of the contralateral side of the brain tissue was measured and used to compensate for possible edema in ipsilateral hemispheres. NeuN immunostaining was analyzed using the NIH Image J software to count NeuN positive cells by particle analysis in the ipsilateral hemispheres of the corticalustriatal and corticaluhippocampal regions of the rat brains at a magnification of 10×."}, "[4]": {"tested_on": "cultured cortical neurons", "assay": "spontaneous Ca2+ transients, fura-2 [Ca2+]i", "type": "cell-based, rat", "settings": "100 μM"}, "cultured microglia": {"tested_on": "cultured microglia", "settings": "response to LPS; cited from earlier work"}}}
{"smiles": "Cc1ccccc1NC(=N)Nc1ccccc1C", "note": "[DTG, 1,3-di-o-tolyguanidine]", "values": [{"measurement": "effect on low-pH evoked transient increases in [Ca2+]i", "setting": "ASIC channels", "value": "inhibits"}, {"measurement": "isolectin IB4-positive cells in the infarct zone", "setting": "rats subjected to MCAO [1]", "value": "fails to elicit these elevations"}, {"measurement": "inhibition of calcium elevations evoked by glutamate application", "setting": "glutamate receptors", "value": "not"}, {"measurement": "level of GFAP expression in brain sections", "setting": "rats subjected to MCAO [2]", "value": "marked decrease"}, {"measurement": "increase of surviving NeuN cells in the infarct zone relative to MCAO-only animals", "setting": "rats subjected to MCAO [3]; 24 hr post stroke", "value": "> 83", "unit": "%"}, {"measurement": "number of viable neurons (NeuN) in ipsilateral infarct zones", "setting": "rats subjected to MCAO [3]; cortical/striatal and cortical/hippocampal, p<0.001", "value": "significantly increased"}, {"measurement": "effect on spontaneous increases in [Ca2+]i (number of events)", "setting": "[4]", "value": "reversibly block"}, {"measurement": "production of TNF-α", "setting": "cultured microglia", "value": "inhibits"}, {"measurement": "production of nitric oxide", "setting": "cultured microglia", "value": "inhibits"}]}
